Laboratory results as given in patent publication US10376520B2, “Methods for the treatment of cardiovascular disorders” (Galapagos NV, priority 2015, dated 2019).

Test system: RA patients
Experiment: [HDL] determination, Study 1 (RA patients, add-on to MTX)
Type: in vivo, human
Protocol: Double-blind, placebo-controlled add on study in subjects with moderately to severely active RA who have an inadequate response to methotrexate (MTX) (oral or parenteral).
595 subjects randomized to one of 6 dose regimens of Compound 1 (dosed as a [Compound 1:HCl:3H2O]) (3 dose levels administered either once or twice daily) or placebo on top of each subject's stable dose of MTX.
Compound 1 (dosed as a [Compound 1:HCl:3H2O]) is dosed for twelve weeks once daily (q.d.) (50 mg, 100 mg or 200 mg) or twice daily (b.i.d.) (25 mg, 50 mg or 100 mg); or placebo.
At Week 12, the subjects on placebo who have not achieved 20% improvement in swollen joint count (SJC66) and tender joint count (TJC68) are re-randomized automatically to receive Compound 1 (dosed as a [Compound 1:HCl:3H2O]) either at 100 mg q.d. or 50 mg b.i.d. doses in a blinded fashion; subjects on 50 mg q.d. who have not achieved 20% improvement in SJC66 and TJC68 will be assigned to 100 mg q.d. and subjects on 25 mg b.i.d. that have not achieved a 20% improvement in SJC66 and TJC68 will be assigned to 50 mg b.i.d. Subjects who switch treatment at week 12 are handled as if they discontinued at week 12 for the purpose of statistical analysis, whereas subjects in the other groups will maintain their randomized treatment until Week 24.
This assay relies on a homogeneous enzymatic colorimetric test. In the presence of magnesium ions, dextran sulfate selectively forms water-soluble complexes with LDL, VLDL and chylomicrons which are resistant to PEG-modified enzymes.
The cholesterol concentration of [HDL]-cholesterol is determined enzymatically by cholesterol esterase and cholesterol oxidase coupled with PEG to the amino groups (approx. 40%).
In the presence of peroxidase, the hydrogen peroxide generated reacts with 4-amino-antipyrine and Sodium N-(2-hydroxy-3-sulfopropyl)-3,5-dimethoxyaniline (HSDA) to form a purple-blue dye. The color intensity of this dye is directly proportional to the cholesterol concentration and is measured photometrically.
Human serum and plasma samples [HDL] determination was done on a Roche/Hitachi Cobas c 701/702 system which automatically calculate the analyte concentration of each sample. Samples containing precipitates are centrifuged before performing the assay.

[1] = 2 x 50 mg b.i.d. (N = 85), week 12
[2] = 2 x 100 mg b.i.d. (N = 84), week 1
[3] = 2 x 100 mg b.i.d. (N = 84), week 2
[4] = 2 x 100 mg b.i.d. (N = 84), week 4
[5] = 2 x 100 mg b.i.d. (N = 84), week 8
[6] = 2 x 100 mg b.i.d. (N = 84), week 12
[7] = continued 25 mg b.i.d (N = 69), week 1
[8] = continued 25 mg b.i.d (N = 69), week 2
[9] = continued 25 mg b.i.d (N = 69), week 4
[10] = continued 25 mg b.i.d (N = 69), week 8
[11] = continued 25 mg b.i.d (N = 69), week 12
[12] = continued 25 mg b.i.d (N = 69), week 16
[13] = continued 25 mg b.i.d (N = 69), week 20
[14] = continued 25 mg b.i.d (N = 69), week 24
[15] = continued 50 mg b.i.d. (N = 85), week 1
[16] = continued 50 mg b.i.d. (N = 85), week 2
[17] = continued 50 mg b.i.d. (N = 85), week 4
[18] = continued 50 mg b.i.d. (N = 85), week 8
[19] = continued 50 mg b.i.d. (N = 85), week 12
[20] = continued 50 mg b.i.d. (N = 85), week 16
[21] = continued 50 mg b.i.d. (N = 85), week 20
[22] = continued 50 mg b.i.d. (N = 85), week 24
[23] = continued 50 mg q.d. (N = 63), week 1
[24] = continued 50 mg q.d. (N = 63), week 2

Compound: O=C(Nc1nc2cccc(-c3ccc(CN4CCS(=O)(=O)CC4)cc3)n2n1)C1CC1 [Compound 1, cyclopropanecarboxylic acid {5-[4-(1,1-dioxo-thiomorpholin-4-ylmethyl)-phenyl]-[1,2,4]triazolo[1,5-a]pyridin-2yl}-amide]
- [HDL] Mean CFB - 12 weeks results [1]: 0.10 mmol/L
- [HDL] Mean percentage CFB - 12 weeks results [1]: 9%
- [HDL] Median CFB - 12 weeks results [1]: 0.10 mmol/L
- [HDL] Mean CFB - 12 weeks results [2]: 0.12 mmol/L
- [HDL] Mean percentage CFB - 12 weeks results [2]: 9%
- [HDL] Median CFB - 12 weeks results [2]: 0.10 mmol/L
- [HDL] Mean CFB - 12 weeks results [3]: 0.20 mmol/L
- [HDL] Mean percentage CFB - 12 weeks results [3]: 15%
- [HDL] Median CFB - 12 weeks results [3]: 0.18 mmol/L
- [HDL] Mean CFB - 12 weeks results [4]: 0.25 mmol/L
- [HDL] Mean percentage CFB - 12 weeks results [4]: 20%
- [HDL] Median CFB - 12 weeks results [4]: 0.25 mmol/L
- [HDL] Mean CFB - 12 weeks results [5]: 0.26 mmol/L
- [HDL] Mean percentage CFB - 12 weeks results [5]: 21%
- [HDL] Median CFB - 12 weeks results [5]: 0.25 mmol/L
- [HDL] Mean CFB - 12 weeks results [6]: 0.30 mmol/L
- [HDL] Mean percentage CFB - 12 weeks results [6]: 23%
- [HDL] Median CFB - 12 weeks results [6]: 0.25 mmol/L
- [HDL] Mean CFB - 24 weeks results [7]: 0.01 mmol/L
- [HDL] Mean percentage CFB - 24 weeks results [7]: 0.74%
- [HDL] Median CFB - 24 weeks results [7]: 0.00 mmol/L
- [HDL] Mean CFB - 24 weeks results [8]: 0.05 mmol/L
- [HDL] Mean percentage CFB - 24 weeks results [8]: 3.77%
- [HDL] Median CFB - 24 weeks results [8]: 0.05 mmol/L
- [HDL] Mean CFB - 24 weeks results [9]: 0.07 mmol/L
- [HDL] Mean percentage CFB - 24 weeks results [9]: 5.04%
- [HDL] Median CFB - 24 weeks results [9]: 0.08 mmol/L
- [HDL] Mean CFB - 24 weeks results [10]: 0.08 mmol/L
- [HDL] Mean percentage CFB - 24 weeks results [10]: 6.08%
- [HDL] Median CFB - 24 weeks results [10]: 0.10 mmol/L
- [HDL] Mean CFB - 24 weeks results [11]: 0.07 mmol/L
- [HDL] Mean percentage CFB - 24 weeks results [11]: 5.78%
- [HDL] Median CFB - 24 weeks results [11]: 0.05 mmol/L
- [HDL] Mean CFB - 24 weeks results [12]: 0.08 mmol/L
- [HDL] Mean percentage CFB - 24 weeks results [12]: 6.74%
- [HDL] Median CFB - 24 weeks results [12]: 0.05 mmol/L
- [HDL] Mean CFB - 24 weeks results [13]: 0.05 mmol/L
- [HDL] Mean percentage CFB - 24 weeks results [13]: 5.08%
- [HDL] Median CFB - 24 weeks results [13]: 0.07 mmol/L
- [HDL] Mean CFB - 24 weeks results [14]: 0.08 mmol/L
- [HDL] Mean percentage CFB - 24 weeks results [14]: 6.59%
- [HDL] Median CFB - 24 weeks results [14]: 0.09 mmol/L
- [HDL] Mean CFB - 24 weeks results [15]: 0.03 mmol/L
- [HDL] Mean percentage CFB - 24 weeks results [15]: 4.29%
- [HDL] Median CFB - 24 weeks results [15]: 0.05 mmol/L
- [HDL] Mean CFB - 24 weeks results [16]: 0.12 mmol/L
- [HDL] Mean percentage CFB - 24 weeks results [16]: 9.99%
- [HDL] Median CFB - 24 weeks results [16]: 0.10 mmol/L
- [HDL] Mean CFB - 24 weeks results [17]: 0.13 mmol/L
- [HDL] Mean percentage CFB - 24 weeks results [17]: 11.50%
- [HDL] Median CFB - 24 weeks results [17]: 0.13 mmol/L
- [HDL] Mean CFB - 24 weeks results [18]: 0.13 mmol/L
- [HDL] Mean percentage CFB - 24 weeks results [18]: 11.21%
- [HDL] Median CFB - 24 weeks results [18]: 0.14 mmol/L
- [HDL] Mean CFB - 24 weeks results [19]: 0.10 mmol/L
- [HDL] Mean percentage CFB - 24 weeks results [19]: 9.27%
- [HDL] Median CFB - 24 weeks results [19]: 0.10 mmol/L
- [HDL] Mean CFB - 24 weeks results [20]: 0.13 mmol/L
- [HDL] Mean percentage CFB - 24 weeks results [20]: 11.13%
- [HDL] Median CFB - 24 weeks results [20]: 0.15 mmol/L
- [HDL] Mean CFB - 24 weeks results [21]: 0.15 mmol/L
- [HDL] Mean percentage CFB - 24 weeks results [21]: 12.24%
- [HDL] Median CFB - 24 weeks results [21]: 0.16 mmol/L
- [HDL] Mean CFB - 24 weeks results [22]: 0.11 mmol/L
- [HDL] Mean percentage CFB - 24 weeks results [22]: 10.05%
- [HDL] Median CFB - 24 weeks results [22]: 0.12 mmol/L
- [HDL] Mean CFB - 24 weeks results [23]: 0.02 mmol/L
- [HDL] Mean percentage CFB - 24 weeks results [23]: 1.75%
- [HDL] Median CFB - 24 weeks results [23]: 0.01 mmol/L
- [HDL] Mean CFB - 24 weeks results [24]: 0.07 mmol/L
- [HDL] Mean percentage CFB - 24 weeks results [24]: 4.74%
- [HDL] Median CFB - 24 weeks results [24]: 0.08 mmol/L
- [HDL] Mean CFB - 24 weeks results (continued 50 mg q.d. (N = 63), week 4): 0.06 mmol/L
